Here are results for one compound from paper PMC5702336, “Critical Role of Hepatic Cyp450s in the Testis-Specific Toxicity of (5R)-5-Hydroxytriptolide in C57BL/6 Mice” (Frontiers in Pharmacology, 2017).

One assay deals with γ-H2AX. Briefly: γ-H2AX protein level and localization in testes and liver (western blot, immunofluorescence). The assay is classed as in vivo, mouse. As to the method:
(§1) For toxicity experiments, mice (n = 3/group) were treated with LLDT-8 (0.5 or 1.0 mg/kg) consecutively administered by gavage for 15 days. Controls received saline. Mice were killed on the 15th-day post-administration and blood, liver, kidney, spleen, testes, and epididymis were collected. About 500 μL blood samples were collected from the heart. The main lobe of the liver, kidney, spleen, and epididymis was fixed in 10% neutral buffered formalin for histological examination, and the left testicle was fixed in modified Davidson's buffer (30% of a 37–40% solution of formaldehyde, 15% ethanol, 5% glacial acetic acid, and 50% distilled H2O) for 16 h followed by 10% neutral buffered formalin for 24 h (Latendresse et al., [2002]). Tissue sections were stained with hematoxylin and eosin (H&E). Remaining tissues were stored at −80°C for RNA and protein extraction.
(§2) Cells were washed twice with ice-cold PBS (137 mM NaCl, 2.7 mM KCl, 10 mM Na2HPO4, and 1.8 mM KH2PO4, pH 7.4) and lysed in SDS sample buffer. Cell lysates, containing 20 μg of protein, were separated with SDS-PAGE (8%) and transferred to polyvinylidene difluoride membranes. After blocking in 5% non-fat milk in tris-buffered saline containing 0.1% Tween-20 (pH = 7.6), membranes were incubated with the appropriate primary antibodies at 4°C overnight. The primary antibodies γ-H2AX (Cat. No: 2577, Lot. No: 11, CST, USA) and Pol II (Cat. No: 05-623, Lot. No: 2397109, Millipore, USA) diluted 1:1000 in 5% bovine serum albumin (BSA, Cat. No. B2064-50G, Sigma, USA). Then the membranes were exposed to secondary antibodies (1:10,000, Cat. No.111-035-003, 115-035-003, Jackson ImmunoResearch Laboratories, USA) in 5% non-fat milk for 1 h at room temperature. Immunoreactive proteins were visualized using an enhanced chemiluminescent system (Cat. No. WBKLS0500, Millipore, Shanghai, China).
For immunofluorescence analysis, the paraffin-embedded testis tissue samples were deparaffinized three times in exchanges wash of xylene. The testis sections were then gradually rehydrated using decreasing ethanol concentrations followed by PBS (pH = 7.4). After antigen retrieval in boiling 0.1M citrate buffer (pH = 6.0), the tissue sections were placed in humidity chambers and incubated with 4% BSA in PBS for 2 h at room temperature. Then 1:400 1% BSA diluted γ-H2AX primary antibody (Cat. No: ab26350, Lot. No: GR305763-3, Abcam, USA) and isotope control Mouse IgG1 (Cat. No: sc-3877, Lot. No: F1316, Santa Cruz, USA) was used. After incubated with primary antibody overnight at 4°C, testis tissue samples were washed three times with PBS. […]
On the technique in general: In western blotting, separated proteins are transferred to a membrane and probed.

In a further assay the test system is GC-2spd cells. Description: Pol II protein level in spermatocyte-like cells (western blot). It counts as cell-based, mouse. As to the method: Mouse GC-1spg (spermatogonia-like, ATCC number: CRL-2053), TM4 (Sertoli cell-like, ATCC number: CRL-1715), and GC-2spd (spermatocyte-like, ATCC number: CRL-2196) were purchased from ATCC (Manassas, VA). Cells were grown in a 5% CO2 atmosphere at 37°C. TM4 was cultured in DMEM supplemented with 5% horse serum, 2.5% fetal bovine serum and 1x antibiotic-antimyotic (Cat. NO. 15240062, Life technologies). GC-1spg and GC-2spd were cultured in DMEM supplemented with 10% fetal bovine serum (Cat. No. F2442, Sigma, USA) and 1x antibiotic-antimyotic (Cat.NO. 15240062, Life technologies).
as §2, with “Then the membranes were exposed to secondary antibodies (1:10,000, Cat. No.111-035-003, 115-035-003, Jackson ImmunoResearch Laboratories, USA) in 5% non-fat milk for 1 h at room temperature. Immunoreactive proteins were visualized using an enhanced chemiluminescent system (Cat. No. WBKLS0500, Millipore, Shanghai, China).” left out

The subject of a further assay is testes gene expression. Briefly: qPCR of AR-related, Sertoli cell and germ cell marker genes in testes. The assay is classed as in vivo, mouse. The method, then:
as §1
Total mouse testes RNA was isolated using a UNIQ-10 total RNA isolation kit (Sangon Biotech, Shanghai, China). One micro gram RNA per sample was reverse-transcribed into cDNA using a PrimeScript RT reagent kit (Cat. No. RR036A, Takara, Dalian, China). The purity and quality of RNA and cDNA were checked by A260/A280 ratio and agarose gel. The qPCR was executed in 20 μL volume containing 10 μL SYBR Premix Ex Taq (Cat. No. RR820A, Takara, Dalian, China), 8 μL of cDNA (80 ng cDNA), 1 μL forward primer (500 nM) and 1 μL reverse primer (500 nM). The sequences of primers for Androgen-binding protein (ABP) and cystatin 12 (Cst12) were referenced from PrimerBank. The sequences for other genes were described elsewhere [Deleted in azoospermia-like (Dazl), Heat shock protein a2 (Hspa2), Phosphoglycerate kinase-2 (Pgk2), Protamine 1 (Prm1), GATA binding protein 1 (Gata1) and Zbtb16 zinc finger and BTB domain containing 16 (Plzf) (Qi et al., [2016]); AR (Ma et al., [2013]); Reproductive homeobox 5 (Rhox5) (Kurek et al., [2015]); Fatty acid binding protein (FABP) (Vanschoonbeek et al., [2008]); Claudin 11 (Cldn11) (Sumigray et al., [2014]); β-actin (Wan et al., [2017])]. The qPCR process was performed using a Rotor Gene Q PCR system (QIAGEN, Shanghai, China). The qPCR amplification program consisted of polymerase activation at 98°C for the 30 s and 40 cycles of denaturation at 95°C for 5 s, annealing, and extension at 60°C for 40 s. The melting curve analysis was carried out for each reaction from 50 to 99°C. The CT values for the samples were normalized to the corresponding β-actin CT values.

Take `CC(C)[C@]12O[C@H]1[C@@H]1O[C@]13[C@]1(O[C@H]1C[C@@]1(O)C4=C(CC[C@]31C)C(=O)OC4)[C@@H]2O` [LLDT-8, (5R)-5-hydroxytriptolide]: the “XY bodies indicated by γ-H2AX foci in testes of WT mice” value in the assay on γ-H2AX (1.0 mg/kg LLDT-8, 15 days) is “decreased”. For the same compound, the “γ-H2AX protein level (immunoblotting) in testes and liver” value in the assay on γ-H2AX (0.5–1 mg/kg, 15 days) is reported as “reduction of γ-H2AX protein level in the testes but not in the liver”. Moreover, the “XY bodies indicated by γ-H2AX foci in testes of KO mice” value in the assay with γ-H2AX (LLDT-8 treated, 15 days) is given as “disappeared”. In the assay with γ-H2AX (immunoblotting, not statistically significant), the “reduction of γ-H2AX in the testes of WT mice” value is reported as “up to 40%”. Further, the “Pol II protein” value with GC-2spd cells was “dose- and time-dependently reduced”. Moreover, in the assay on testes gene expression (0.5–1.0 mg/kg, 15 days), the “expression of AR, Rhox5, Cldn11, Cst12, ABP and FABP in testes of WT mice” value is on record as “did not reduce”. Besides, in the assay on testes gene expression (15 days), the “expression of Dazl and Prm1 in testes of WT mice” value is reported as “marked decrease”; the “expression of Hspa2 in testes of WT mice” value is reported as “mild decrease”. In addition, the “expression of Cldn11, Cst12 and FABP in testes of WT mice” value in the assay on testes gene expression (particularly in 1.0 mg/kg group) was “increased”.
